“Also recorded” adds a separate entry of the source.
How the values were obtained:
STOP+/− mice [1] = assay: Open field locomotor activity; format: in vivo, mouse
Procedure: The NAP vehicle solution (termed DD), included the following ingredients (per milliliter): 7.5 mg of NaCl, 1.7 mg of citric acid monohydrate, 3 mg of disodium phosphate dihydrate, and 0.2 mg of benzalkonium chloride solution (50%) (Alcalay R N et al., Neurosci Lett, 361(1-3): 128-131 (2004)). NAP or vehicle solution (DD) was administered to mice hand-held in a semisupine position with nostrils facing the investigator. A pipette tip was used to administer 2.5 μl/nostril. The mouse was hand-held until the solution was totally absorbed (10 s). […] STOP+/− male mice (5 months old, n=4) received daily doses of 10 mg/kg intraperitoneal injection (IP) of clozapine (5 days a week), for the duration of the experiment (7 weeks). A control STOP+/− male mice group (5 month old, n=3) were injected daily with saline. NAP treatment included daily (5 days a week) intranasal administrations (0.5 μg/5 μl/mouse/day) for 7-10 weeks. For intranasal administration, the peptide was dissolved in the vehicle solution (termed DD) described above. Each experimental group included 10-12 mice, 4-12 month-old; mean age 6 months). […]
Locomotor activity was measured in 5 consecutive sessions, 3 minutes each and the mean path length in cm of each mouse in the 3 minute sessions per the entire 15 minute period of observation in open field (80 cm diameter) was determined. […]

[2] = system: closed head injury in mice; settings: cited from earlier work
schizophrenia patients = settings: human clinical trial; cited from earlier work
[3] = system: animal models simulating parts of the Alzheimer's disease pathology; settings: in vivo; cited from earlier work
[4] = system: peripheral blood mononuclear cells (PBMCs); settings: cited from earlier work
STOP+/− mice [5] = assay: Morris water maze and probe test; format: in vivo, mouse
Procedure: The NAP vehicle solution (termed DD), included the following ingredients (per milliliter): 7.5 mg of NaCl, 1.7 mg of citric acid monohydrate, 3 mg of disodium phosphate dihydrate, and 0.2 mg of benzalkonium chloride solution (50%) (Alcalay R N et al., Neurosci Lett, 361(1-3): 128-131 (2004)). NAP or vehicle solution (DD) was administered to mice hand-held in a semisupine position with nostrils facing the investigator. A pipette tip was used to administer 2.5 μl/nostril. The mouse was hand-held until the solution was totally absorbed (10 s). […]
The test measures the ability of rodents to learn and remember, by spatial navigation, the place of the hidden platform in a round water maze. […] Here, mice were monitored on five consecutive swimming days. […] The time required to reach the platform during the first daily test (indicative of learning and intact reference memory) and the time required to reach the platform in the second trial [indicative of short-term (working) memory] were measured and recorded separately. […] The platform was removed from the maze and the time spent by the mice in the pool's quadrant where the platform used to be was recorded. […] Mice were released into the water and the time taken to find the platform was recorded (maximum 60 seconds). […]

[6] = system: ADNP-deficient mice, triple transgenic mouse model of AD, model of frontotemporal dementia; settings: in vivo; cited from earlier work

## CC[C@H](C)[C@H](NC(=O)[C@H](CO)NC(=O)[C@@H](NC(=O)[C@@H]1CCCN1C(=O)[C@H](C)NC(=O)[C@@H](N)CC(N)=O)C(C)C)C(=O)N1CCC[C@H]1C(=O)N[C@@H](CCC(N)=O)C(=O)O [NAP]
STOP+/− mice [1]; Example 3, STOP+/− male mice, NAP intranasal 0.5 μg/mouse/day or clozapine 10 mg/kg IP, FIG. 8
  hyper-locomotion (path length) in open field: significantly decreased the hyper-locomotion; also recorded: significantly reduced the path length
STOP+/− mice [1]; Example 4, STOP+/− mice, NAP intranasal 0.5 microgram/mouse/day, clozapine injection 3 mg/kg/day, FIG. 11
  open field activity: also reduced the activity
[2]
  damage caused by closed head injury: reduced damage
Schizophrenia patients
  activity in schizophrenia patients: shown activity
[3]
  protection in Alzheimer's disease pathology models: protective
[4]
  anti-CD3-/anti-CD28-stimulated proliferation: suppressed
  expression of CD69, CD154 and IFN-γ: decreased the expression
STOP+/− mice [5]; Example 3, STOP+/− male mice, 5th day, NAP intranasal 0.5 μg/mouse/day or clozapine IP, FIG. 10
  probe test, time in area where the platform used to be (spatial memory): significantly improved the performance; also recorded: significantly more time
STOP+/− mice [5]; Example 4, STOP+/− mice, NAP 0.5 microgram/mouse/day, clozapine 3 mg/kg/day, FIG. 13
  Morris water maze learning and memory: protection against adverse clozapine effects on learning
[6]
  tau hyperphosphorylation and cognitive functions: reduces tau hyperphosphorylation and enhances cognitive functions
